Measured values reported in publication doi:10.1101/2025.11.24.690255v1 (biorxiv, 2025).

Target: β-glucosidase B (BglB) (Paenibacillus polymyxa, UniProt P22505)
Assay: hydrolysis monitored at […] nm, Michaelis-Menten nonlinear fit
Format: biochemical
Conditions: 0-100 mM substrate, 15 min

Chain of β-glucosidase B (BglB) (P22505 whole entry): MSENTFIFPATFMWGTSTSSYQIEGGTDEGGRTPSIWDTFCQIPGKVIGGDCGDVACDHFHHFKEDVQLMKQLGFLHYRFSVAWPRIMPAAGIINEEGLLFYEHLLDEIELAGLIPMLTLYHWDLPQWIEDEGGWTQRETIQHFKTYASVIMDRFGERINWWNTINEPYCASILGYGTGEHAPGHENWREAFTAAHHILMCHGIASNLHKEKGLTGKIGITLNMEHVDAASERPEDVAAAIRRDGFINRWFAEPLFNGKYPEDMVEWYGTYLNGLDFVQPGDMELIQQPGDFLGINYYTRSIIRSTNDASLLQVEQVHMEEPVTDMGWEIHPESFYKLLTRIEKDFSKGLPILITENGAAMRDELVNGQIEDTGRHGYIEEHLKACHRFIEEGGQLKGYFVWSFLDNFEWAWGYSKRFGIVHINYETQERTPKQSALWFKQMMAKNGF

`O=[N+]([O-])c1ccc(O[C@@H]2O[C@H](CO)[C@@H](O)[C@H](O)[C@H]2O)cc1` [pPNG, 4-nitrophenyl-β-D-glucopyranoside] was tested, and the Km was 5 ± 0.3 mM.
